Measurements published in PubChem BioAssay (NCI).
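Interpolation was linear, between the two tested concentrations surrounding the appropriate level; five concentrations were tested over 48 hours in 96-well plates. The concentration for full growth arrest is given as TGI.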

Experiments:
Assay in all cases: inhibition of tumour cell growth, NCI panel, 48 h
[1] = test system: SK-OV-3 ovarian
[2] = test system: HCT-116 colon
[3] = test system: SK-MEL-5 melanoma
[4] = test system: EKVX NSCLC
[5] = test system: SNB-19 CNS
[6] = test system: UO-31 renal
[7] = test system: CAKI-1 renal
[8] = test system: NCI-H460 lung
[9] = test system: KM12 colon
[10] = test system: NCI-H23 lung
[11] = test system: MCF7 breast
[12] = test system: OVCAR-5 ovarian
[13] = test system: 786-0 renal
[14] = test system: OVCAR-3 ovarian
[15] = test system: RXF 393 renal
[16] = test system: NCI-H226 lung
[17] = test system: NCI/ADR-RES ovarian
[18] = test system: HL-60(TB) leukemia
[19] = test system: HS 578T breast
[20] = test system: HT29 colon
[21] = test system: HOP-92 NSCLC
[22] = test system: MDA-N
[23] = test system: SN12C renal
[24] = test system: SR leukemia
[25] = test system: RPMI-8226 leukemia
[26] = test system: NCI-H522 lung
[27] = test system: SW-620 colon
[28] = test system: MALME-3M melanoma
[29] = test system: IGROV1 ovarian
[30] = test system: T-47D breast
[31] = test system: OVCAR-8 ovarian
[32] = test system: HCC-2998 colon
[33] = test system: MDA-MB-435
[34] = test system: M14 melanoma
[35] = test system: ACHN renal
[36] = test system: HCT-15 colon
[37] = test system: SK-MEL-28 melanoma
[38] = test system: BT-549 breast
[39] = test system: OVCAR-4 ovarian
[40] = test system: SNB-75 CNS
[41] = test system: CCRF-CEM leukemia
[42] = test system: SF-268 CNS
[43] = test system: TK-10 renal
[44] = test system: MDA-MB-231 breast
[45] = test system: SF-295 CNS
[46] = test system: SK-MEL-2 melanoma
[47] = test system: A498 renal
[48] = test system: HOP-62 NSCLC
[49] = test system: UACC-62 melanoma
[50] = test system: U251 CNS
[51] = test system: A549 NSCLC
[52] = test system: UACC-257 melanoma
[53] = test system: LOX IMVI melanoma
[54] = test system: PC-3 prostate
[55] = test system: COLO 205 colon
[56] = test system: DU-145 prostate
[57] = test system: K-562 leukemia
[58] = test system: SF-539 CNS
[59] = test system: MOLT-4 leukemia

Cc1c(-c2ccccc2)c(C#N)c2nnn(C)c(=O)n12
TGI [1]: > 100 µM
TGI [2]: > 100 µM
TGI [3]: > 100 µM
TGI [4]: > 100 µM
TGI [5]: > 100 µM
TGI [6]: > 100 µM
TGI [7]: > 100 µM
TGI [8]: > 100 µM
TGI [9]: > 100 µM
TGI [10]: > 100 µM
TGI [11]: > 100 µM
TGI [12]: > 100 µM
TGI [13]: > 100 µM
TGI [14]: > 100 µM
TGI [15]: > 100 µM
TGI [16]: > 100 µM
TGI [17]: > 100 µM
TGI [18]: > 100 µM
TGI [19]: > 100 µM
TGI [20]: > 100 µM
TGI [21]: > 100 µM
TGI [22]: > 100 µM
TGI [23]: > 100 µM
TGI [24]: > 100 µM
TGI [25]: > 100 µM
TGI [26]: > 100 µM
TGI [27]: > 100 µM
TGI [28]: > 100 µM
TGI [29]: > 100 µM
TGI [30]: > 100 µM
TGI [31]: > 100 µM
TGI [32]: > 100 µM
TGI [33]: > 100 µM
TGI [34]: > 100 µM
TGI [35]: > 100 µM
TGI [36]: > 100 µM
TGI [37]: > 100 µM
TGI [38]: > 100 µM
TGI [39]: > 100 µM
TGI [40]: > 100 µM
TGI [41]: > 100 µM
TGI [42]: > 100 µM
TGI [43]: > 100 µM
TGI [44]: > 100 µM
TGI [45]: > 100 µM
TGI [46]: > 100 µM
TGI [47]: > 100 µM
TGI [48]: > 100 µM
TGI [49]: > 100 µM
TGI [50]: > 100 µM
TGI [51]: > 100 µM
TGI [52]: > 100 µM
TGI [53]: > 100 µM
TGI [54]: > 100 µM
TGI [55]: > 100 µM
TGI [56]: > 100 µM
TGI [57]: > 100 µM
TGI [58]: > 100 µM

CC(C)C[C@H]1C(=O)N2CCC[C@H]2[C@]2(O)O[C@](NC(=O)[C@@H]3C=C4c5cccc6[nH]c(Br)c(c56)C[C@H]4N(C)C3)(C(C)C)C(=O)N12
TGI [1]: > 100 µM
TGI [2]: > 100 µM
TGI [3]: > 100 µM
TGI [4]: > 100 µM
TGI [5]: > 100 µM
TGI [6]: > 100 µM
TGI [7]: > 100 µM
TGI [8]: > 100 µM
TGI [9]: > 100 µM
TGI [11]: > 100 µM
TGI [12]: > 100 µM
TGI [13]: > 100 µM
TGI [14]: > 100 µM
TGI [15]: > 100 µM
TGI [16]: > 100 µM
TGI [17]: > 100 µM
TGI [18]: 28.1 µM
TGI [19]: > 100 µM
TGI [20]: > 100 µM
TGI [21]: > 100 µM
TGI [22]: > 100 µM
TGI [23]: > 100 µM
TGI [24]: > 100 µM
TGI [25]: > 100 µM
TGI [26]: > 100 µM
TGI [27]: > 100 µM
TGI [28]: > 100 µM
TGI [29]: > 100 µM
TGI [30]: > 100 µM
TGI [31]: > 100 µM
TGI [32]: > 100 µM
TGI [33]: > 100 µM
TGI [34]: > 100 µM
TGI [35]: > 100 µM
TGI [36]: > 100 µM
TGI [59]: > 100 µM
TGI [37]: > 100 µM
TGI [38]: > 100 µM
TGI [39]: > 100 µM
TGI [40]: > 100 µM
TGI [41]: > 100 µM
TGI [42]: > 100 µM
TGI [43]: > 100 µM
TGI [44]: > 100 µM
TGI [45]: > 100 µM
TGI [46]: > 100 µM
TGI [47]: > 100 µM
TGI [48]: > 100 µM
TGI [49]: > 100 µM
TGI [50]: > 100 µM
TGI [51]: > 100 µM
TGI [52]: > 100 µM
TGI [53]: > 100 µM
TGI [54]: > 100 µM
TGI [55]: 23.5 µM
TGI [56]: > 100 µM
TGI [57]: > 100 µM
TGI [58]: > 100 µM
